Assay results published in US7910611B2, “Therapeutic agent for restenosis” (Kyowa Hakko Kirin Co., Ltd., priority 2005, dated 2011).
Where a name gives a salt, the structure may show the parent alone.

Columns and labels:
[1] = tested on: normal human aortic smooth muscle cells; assay: Cell growth inhibition tests against human vascular smooth muscle cells (XTT); format: cell-based; settings: for GI50: read-out: growth inhibitory activity in terms of the GI50 value (concentration of 50% growth inhibition), cultured 72 hours with test compound, XTT, absorbance at 490 nm
Experimental: Cell Growth Inhibition Tests Against Human Vascular Smooth Muscle Cells
As human vascular smooth muscle cells, normal human aortic smooth muscle cells (Cambrex, catalog No. C-2571) were used. HuMedia-SB2 basal medium (Kurabo Industries, Ltd., catalog No. KS-2150S) containing 5% fetal bovine serum (Kurabo Industries, Ltd., catalog No. KS-6150), 0.5 ng/mL human recombinant epidermal growth factor (Kurabo Industries, Ltd., catalog No. KS-6150), 2 ng/mL human recombinant basic fibroblast growth factor (Kurabo Industries, Ltd., catalog No. KS-6150), 5 μg/mL insulin (Kurabo Industries, Ltd., catalog number KS-6150), 50 μg/mL gentamycin (Kurabo Industries, Ltd., catalog No. KS-6150), and 50 ng/mL amphotericin B (Kurabo Industries, Ltd., catalog No. KS-6150) was used for cell culture. The cells were cultured at 37° C. in a 5% carbon dioxide atmosphere.
The normal human aortic smooth muscle cells (1000 cells/well) were seeded in each well of 96-well plates (Nunc, catalog No. 167008), and cultured overnight. Test compounds diluted stepwise were added, and the cells were further cultured for 72 hours (final volume: 100 μL/well). Fifty μL XTT labeling mixture of Cell Proliferation Kit II (XTT) (Roche Diagnostics, catalog No. 1465015) was added to each well, and the plates were incubated at 37° C. After 4 hours, absorbance at 490 nm (reference wavelength: 655 nm) was measured with a plate reader (Molecular Device, SpectraMax 340PC^384). Growth ratios of the cells in the wells treated with the test compound was calculated based on the growth ratio of the cells in the control well treated with solvent (dimethyl sulfoxide (DMSO)) for 72 hours, which was defined as 100%.

| melting point [°C] | Compound | GI50 [1] [µM] | inhibitory activity compared with the corresponding racemic mixture (Compound 12) ([1]; optically active compound versus racemic mixture) |
| --- | --- | --- | --- |
| 188 to 191 | CCC(=O)N1N=C(N2CCCC2=O)SC1(CCNS(C)(=O)=O)c1ccccc1 (single isomer, unassigned; (-)) [Compound e, (−)-N-{2-[5-(2-Oxopyrrolidin-1-yl)-2-phenyl-3-propionyl-2,3-dihydro-1,3,4-thiadiazol-2-yl]ethyl}methanesulfonamide] | < 10 | – |
| – | C=CS(=O)(=O)NCC1(c2ccccc2)SC(NC(=O)C(C)(C)C)=NN1C(=O)C(C)(C)C (stereo not shown) [Compound k, N-[4-(2,2-Dimethylpropionyl)-5-ethenesulfonylaminomethyl-5-phenyl-4,5-dihydro-1,3,4-thiadiazol-2-yl]-2,2-dimethylpropanamide] | < 10 | – |
| – | CCC(=O)N1N=C(NC(=O)C(C)(C)C)SC1(CCNS(C)(=O)=O)c1ccccc1 (single isomer, unassigned; (-)) [Compound b, (−)-N-[5-(2-Methanesulfonylaminoethyl)-5-phenyl-4-propionyl-4,5-dihydro-1,3,4-thiadiazol-2-yl]-2,2-dimethylpropanamide] | < 10 | – |
| – | CCNCCS(=O)(=O)NCCC1(c2ccccc2)SC(NC(=O)C(C)(C)C)=NN1C(=O)C(C)(C)C (stereo not shown) [Compound i, N-{4-(2,2-Dimethylpropionyl)-5-[2-(2-ethylaminoethanesulfonylamino)-ethyl]-5-phenyl-4,5-dihydro-1,3,4-thiadiazol-2-yl}-2,2-dimethylpropanamide] | < 10 | – |
| 187 to 190 | CC(=O)N1N=C(NC(=O)C(C)(C)C)SC1(CCNS(C)(=O)=O)c1ccccc1 (single isomer, unassigned; (-)) [Compound f, (−)-N-[4-Acetyl-5-(2-methanesulfonylaminoethyl)-5-phenyl-4,5-dihydro-1,3,4-thiadiazol-2-yl]-2,2-dimethylpropanamide] | – | – |
| 92 to 95 | CN(C)CCCS(=O)(=O)NCC1(c2ccccc2)SC(NC(=O)C(C)(C)C)=NN1C(=O)C(C)(C)C (single isomer, unassigned; (-)) [Compound n, (−)-N-[5-(3-Dimethylaminopropanesulfonylaminomethyl)-4-(2,2-dimethylpropionyl)-5-phenyl-4,5-dihydro-1,3,4-thiadiazol-2-yl]-2,2-dimethylpropanamide] | < 10 | – |
| – | CC(C)C(=O)N1N=C(NC(=O)C(C)(C)C)SC1(CCNS(C)(=O)=O)c1ccccc1 (single isomer, unassigned; (-)) [Compound d, (−)-N-[4-Isobutyryl-5-(2-methanesulfonylaminoethyl)-5-phenyl-4,5-dihydro-1,3,4-thia-diazol-2-yl]-2,2-dimethylpropanamide] | < 10 | – |
| 101 to 104 | CN(C)CCS(=O)(=O)NCC1(c2ccccc2)SC(NC(=O)C(C)(C)C)=NN1C(=O)C(C)(C)C (single isomer, unassigned; (-)) [Compound m, (−)-N-[5-(2-Dimethylaminoethanesulfonylaminomethyl)-4-(2,2-dimethylpropionyl)-5-phenyl-4,5-dihydro-1,3,4-thiadiazol-2-yl]-2,2-dimethylpropanamide] | < 10 | more potent inhibitory activities |
| – | CCNCCS(=O)(=O)NCC1(c2ccccc2)SC(NC(=O)C(C)(C)C)=NN1C(=O)C(C)(C)C (single isomer, unassigned; (-)) [Compound l, (−)-N-[4-(2,2-Dimethylpropionyl)-5-(2-ethylaminoethanesulfonylaminomethyl)-5-phenyl-4,5-dihydro-1,3,4-thiadiazol-2-yl]-2,2-dimethylpropanamide] | < 10 | – |
| – | CC(C)(C)C(=O)NC1=NN(C(=O)C(C)(C)C)C(CCNS(C)(=O)=O)(c2ccccc2)S1 (single isomer, unassigned; (-)) [Compound a, (−)-N-[4-(2,2-Dimethylpropionyl)-5-(2-methanesulfonylaminoethyl)-5-phenyl-4,5-dihydro-1,3,4-thiadiazol-2-yl]-2,2-dimethylpropanamide] | < 10 | – |
| 169 to 171 | CC(=O)N1N=C(N2CCCCC2=O)SC1(CCNS(C)(=O)=O)c1ccccc1 (single isomer, unassigned; (-)) [Compound h, (−)-N-{2-[3-Acetyl-5-(2-oxopiperidino)-2-phenyl-2,3-dihydro-1,3,4-thiadiazol-2-yl]ethyl}methanesulfonamide] | < 10 | – |
| 107 to 110 | CC(C)(C)C(=O)N1N=C(N2CCCC2=O)SC1(CCNS(C)(=O)=O)c1ccccc1 (single isomer, unassigned; (-)) [Compound c, (−)-N-{2-[3-(2,2-Dimethylpropionyl)-5-(2-oxopyrrolidin-1-yl)-2-phenyl-2,3-dihydro-1,3,4-thiadiazol-2-yl]ethyl}methanesulfonamide] | – | – |
| – | CC(C)(C)C(=O)NC1=NN(C(=O)C(C)(C)C)C(CCCC(=O)NCCO)(c2ccccc2)S1 (stereo not shown) [Compound o, 4-[3-(2,2-Dimethylpropionyl)-5-(2,2-dimethylpropionylamino)-2-phenyl-2,3-dihydro-1,3,4-thiadiazol-2-yl]-N-(2-hydroxyethyl)butanamide] | < 10 | – |
| 137 to 140 | CC(=O)N1N=C(N2CCCC2=O)SC1(CCNS(C)(=O)=O)c1ccccc1 (stereo not shown) [Compound g, N-{2-[3-Acetyl-5-(2-oxopyrrolidin-1-yl)-2-phenyl-2,3-dihydro-1,3,4-thiadiazol-2-yl]-ethyl}methanesulfonamide] | – | – |
| 175 to 182 | CC(C)(C)C(=O)NC1=NN(C(=O)C(C)(C)C)C(CN)(c2ccccc2)S1 (stereo not shown) (as salt: hydrochloride) [Compound j, N-[5-Aminomethyl-4-(2,2-dimethylpropionyl)-5-phenyl-4,5-dihydro-1,3,4-thiadiazol-2-yl]-2,2-dimethylpropanamide] | – | – |
| – | CC(C)(C)C(=O)NC1=NN(C(=O)C(C)(C)C)C(CNS(=O)(=O)CCSCCN)(c2ccccc2)S1 (stereo not shown) [Compound 24, N-{5-[2-(2-Aminoethylsulfanyl)ethanesulfonylaminomethyl]-4-(2,2-dimethyl-propionyl)-5-phenyl-4,5-dihydro[1,3,4]thiadiazol-2-yl}-2,2-dimethyl-propionamide] | < 10 | – |
| – | CC(C)(C)C(=O)NC1=NN(C(=O)C(C)(C)C)C(CN)(c2ccccc2)S1 (stereo not shown) [Compound j, N-[5-Aminomethyl-4-(2,2-dimethylpropionyl)-5-phenyl-4,5-dihydro-1,3,4-thiadiazol-2-yl]-2,2-dimethylpropanamide] | < 10 | – |
